Assays:
[1] = molecular target: Calcium/calmodulin-dependent protein kinase type IV (Homo sapiens) (UniProt Q16566); conditions: Compound concentration 100.0 nM
[2] = molecular target: Serine/threonine-protein kinase MAK (Homo sapiens) (UniProt P20794); conditions: Compound concentration 100.0 nM
[3] = molecular target: Protein kinase C iota type (Homo sapiens) (UniProt P41743); conditions: Compound concentration 100.0 nM
[4] = molecular target: Serine/threonine-protein kinase N2 (Homo sapiens) (UniProt Q16513); conditions: Compound concentration 100.0 nM
[5] = molecular target: Dual specificity mitogen-activated protein kinase kinase 7 (Homo sapiens) (UniProt O14733); conditions: Compound concentration 100.0 nM
[6] = molecular target: Serine/threonine-protein kinase 17B (Homo sapiens) (UniProt O94768); conditions: Compound concentration 100.0 nM
Serine/threonine-protein kinase 17B (Homo sapiens), sequence (O94768 whole entry): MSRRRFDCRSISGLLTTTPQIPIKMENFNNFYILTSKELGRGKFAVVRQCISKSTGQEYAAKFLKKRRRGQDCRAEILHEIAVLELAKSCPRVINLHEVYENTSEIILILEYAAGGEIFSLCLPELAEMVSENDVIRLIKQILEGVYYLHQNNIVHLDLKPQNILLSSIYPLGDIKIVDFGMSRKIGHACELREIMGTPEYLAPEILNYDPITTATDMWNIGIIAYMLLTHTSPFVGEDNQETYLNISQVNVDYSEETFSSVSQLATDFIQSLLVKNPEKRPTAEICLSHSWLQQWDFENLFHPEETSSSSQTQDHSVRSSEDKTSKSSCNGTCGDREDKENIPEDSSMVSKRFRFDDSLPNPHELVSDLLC

[7] = molecular target: Proto-oncogene tyrosine-protein kinase receptor Ret (Homo sapiens) (UniProt P07949); conditions: Compound concentration 100.0 nM
[8] = molecular target: Insulin receptor-related protein (Homo sapiens) (UniProt P14616); conditions: Compound concentration 100.0 nM
[9] = molecular target: Mitogen-activated protein kinase kinase kinase 5 (Homo sapiens) (UniProt Q99683); conditions: Compound concentration 100.0 nM
[10] = molecular target: High affinity 3',5'-cyclic-AMP phosphodiesterase 7A (Homo sapiens, UniProt Q13946); assay: Biochemical assay (PDE7A)
[11] = molecular target: LIM domain kinase 2 (Homo sapiens) (UniProt P53671); conditions: Compound concentration 100.0 nM
[12] = test system: Epidermal growth factor receptor (Homo sapiens), P00533 [G719C]; conditions: Compound concentration 100.0 nM
[13] = molecular target: Cyclin-dependent kinase 5 (Homo sapiens) (UniProt Q00535); conditions: Compound concentration 100.0 nM
Cyclin-dependent kinase 5 (Homo sapiens), sequence (Q00535 whole entry, looked up): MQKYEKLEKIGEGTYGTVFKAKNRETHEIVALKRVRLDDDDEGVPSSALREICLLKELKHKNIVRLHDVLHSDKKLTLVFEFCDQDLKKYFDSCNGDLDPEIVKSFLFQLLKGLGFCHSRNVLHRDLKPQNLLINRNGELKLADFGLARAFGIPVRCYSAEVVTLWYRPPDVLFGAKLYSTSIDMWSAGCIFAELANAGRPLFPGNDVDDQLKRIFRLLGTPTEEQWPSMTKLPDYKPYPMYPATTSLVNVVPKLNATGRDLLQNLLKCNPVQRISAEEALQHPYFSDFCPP

[14] = molecular target: Myosin-IIIa (Homo sapiens) (UniProt Q8NEV4); conditions: Compound concentration 100.0 nM
[15] = molecular target: Serine/threonine-protein kinase/endoribonuclease IRE1 (Homo sapiens) (UniProt O75460); conditions: Compound concentration 100.0 nM
Serine/threonine-protein kinase/endoribonuclease IRE1 (Homo sapiens), sequence (O75460 19-977 limits assumed): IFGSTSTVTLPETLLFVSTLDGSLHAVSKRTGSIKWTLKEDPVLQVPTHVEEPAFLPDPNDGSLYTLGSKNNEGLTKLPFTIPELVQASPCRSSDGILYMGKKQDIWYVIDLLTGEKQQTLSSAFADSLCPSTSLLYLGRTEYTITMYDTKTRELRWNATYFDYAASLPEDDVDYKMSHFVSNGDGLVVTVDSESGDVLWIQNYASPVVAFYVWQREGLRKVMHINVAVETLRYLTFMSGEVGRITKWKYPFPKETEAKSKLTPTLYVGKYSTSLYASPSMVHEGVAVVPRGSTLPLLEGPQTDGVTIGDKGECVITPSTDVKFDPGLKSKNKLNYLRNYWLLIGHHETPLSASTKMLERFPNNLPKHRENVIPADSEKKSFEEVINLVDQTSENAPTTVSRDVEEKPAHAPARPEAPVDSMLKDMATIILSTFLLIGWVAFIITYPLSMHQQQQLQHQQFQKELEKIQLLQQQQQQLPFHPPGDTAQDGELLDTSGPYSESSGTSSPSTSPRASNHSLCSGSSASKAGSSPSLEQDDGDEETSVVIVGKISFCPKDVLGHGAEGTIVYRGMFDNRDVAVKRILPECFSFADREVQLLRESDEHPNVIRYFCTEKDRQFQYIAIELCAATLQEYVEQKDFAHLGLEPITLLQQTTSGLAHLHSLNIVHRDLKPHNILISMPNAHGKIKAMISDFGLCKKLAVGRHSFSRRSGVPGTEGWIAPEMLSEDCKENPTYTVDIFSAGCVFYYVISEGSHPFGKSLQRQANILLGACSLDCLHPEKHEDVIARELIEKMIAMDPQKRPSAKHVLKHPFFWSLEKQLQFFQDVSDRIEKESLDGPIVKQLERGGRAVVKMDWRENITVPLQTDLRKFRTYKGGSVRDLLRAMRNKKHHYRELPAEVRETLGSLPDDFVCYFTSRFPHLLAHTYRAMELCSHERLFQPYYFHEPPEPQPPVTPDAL

[16] = molecular target: Myosin-IIIb (Homo sapiens) (UniProt Q8WXR4); conditions: Compound concentration 100.0 nM
[17] = molecular target: Serine/threonine-protein kinase SIK3 (Homo sapiens) (UniProt Q9Y2K2); conditions: Compound concentration 100.0 nM
Serine/threonine-protein kinase SIK3 (Homo sapiens), sequence (Q9Y2K2 whole entry, looked up): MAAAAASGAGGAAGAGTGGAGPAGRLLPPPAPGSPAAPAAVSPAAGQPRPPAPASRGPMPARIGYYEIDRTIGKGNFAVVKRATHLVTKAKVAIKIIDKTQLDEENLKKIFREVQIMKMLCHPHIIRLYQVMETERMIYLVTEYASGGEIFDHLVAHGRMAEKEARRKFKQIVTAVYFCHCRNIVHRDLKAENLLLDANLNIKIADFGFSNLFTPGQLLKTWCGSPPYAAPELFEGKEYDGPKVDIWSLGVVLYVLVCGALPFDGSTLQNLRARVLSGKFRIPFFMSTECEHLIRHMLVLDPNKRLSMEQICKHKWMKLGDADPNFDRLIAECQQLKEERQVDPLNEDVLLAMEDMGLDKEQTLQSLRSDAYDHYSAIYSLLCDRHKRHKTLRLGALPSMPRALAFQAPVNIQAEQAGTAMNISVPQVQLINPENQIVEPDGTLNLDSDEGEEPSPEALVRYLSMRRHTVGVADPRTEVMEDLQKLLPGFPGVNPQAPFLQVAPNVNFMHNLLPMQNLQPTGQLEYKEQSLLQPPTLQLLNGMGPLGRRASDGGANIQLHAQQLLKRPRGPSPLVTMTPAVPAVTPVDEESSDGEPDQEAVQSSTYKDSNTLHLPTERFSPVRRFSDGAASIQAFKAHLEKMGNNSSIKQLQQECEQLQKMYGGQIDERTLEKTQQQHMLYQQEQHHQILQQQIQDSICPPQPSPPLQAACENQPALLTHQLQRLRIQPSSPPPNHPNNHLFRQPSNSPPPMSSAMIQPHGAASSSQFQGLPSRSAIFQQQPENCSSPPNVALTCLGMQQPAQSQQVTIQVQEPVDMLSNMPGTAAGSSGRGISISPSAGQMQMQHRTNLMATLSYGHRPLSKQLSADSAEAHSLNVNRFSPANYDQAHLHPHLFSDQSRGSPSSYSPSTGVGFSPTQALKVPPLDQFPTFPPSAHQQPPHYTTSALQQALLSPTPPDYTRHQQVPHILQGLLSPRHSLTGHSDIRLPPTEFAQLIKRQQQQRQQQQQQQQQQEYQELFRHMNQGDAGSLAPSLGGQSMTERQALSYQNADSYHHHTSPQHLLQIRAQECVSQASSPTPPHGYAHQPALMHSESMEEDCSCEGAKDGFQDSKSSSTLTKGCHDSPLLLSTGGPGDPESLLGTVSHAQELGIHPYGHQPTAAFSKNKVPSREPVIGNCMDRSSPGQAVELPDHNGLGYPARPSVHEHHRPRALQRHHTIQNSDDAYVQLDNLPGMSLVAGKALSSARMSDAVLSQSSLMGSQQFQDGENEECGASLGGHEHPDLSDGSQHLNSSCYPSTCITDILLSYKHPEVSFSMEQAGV

[18] = test system: Tyrosine-protein kinase ABL1 (Homo sapiens), P00519 [F317L]; conditions: Compound concentration 100.0 nM
[19] = molecular target: Serine/threonine-protein kinase haspin (Homo sapiens) (UniProt Q8TF76); conditions: Compound concentration 100.0 nM
[20] = molecular target: Kappa-type opioid receptor (Homo sapiens) (UniProt P41145); conditions: Compound concentration 10.0 uM
[21] = molecular target: Mitogen-activated protein kinase kinase kinase 13 (Homo sapiens) (UniProt O43283); conditions: Compound concentration 100.0 nM
[22] = molecular target: Death-associated protein kinase 2 (Homo sapiens) (UniProt Q9UIK4); conditions: Compound concentration 100.0 nM
[23] = molecular target: Protein kinase C theta type (Homo sapiens) (UniProt Q04759); conditions: Compound concentration 100.0 nM
[24] = molecular target: Non-receptor tyrosine-protein kinase TYK2 (Homo sapiens) (UniProt P29597); conditions: Compound concentration 100.0 nM
[25] = molecular target: Transient receptor potential cation channel subfamily M member 6 (Homo sapiens) (UniProt Q9BX84); conditions: Compound concentration 100.0 nM
[26] = molecular target: Serine/threonine-protein kinase Nek9 (Homo sapiens) (UniProt Q8TD19); conditions: Compound concentration 100.0 nM
[27] = molecular target: Serine/threonine-protein kinase PknB (Mycobacterium tuberculosis) (UniProt P9WI81); conditions: Compound concentration 100.0 nM
[28] = molecular target: Serine/threonine-protein kinase Nek11 (Homo sapiens) (UniProt Q8NG66); conditions: Compound concentration 100.0 nM
Serine/threonine-protein kinase Nek11 (Homo sapiens), sequence (Q8NG66 whole entry): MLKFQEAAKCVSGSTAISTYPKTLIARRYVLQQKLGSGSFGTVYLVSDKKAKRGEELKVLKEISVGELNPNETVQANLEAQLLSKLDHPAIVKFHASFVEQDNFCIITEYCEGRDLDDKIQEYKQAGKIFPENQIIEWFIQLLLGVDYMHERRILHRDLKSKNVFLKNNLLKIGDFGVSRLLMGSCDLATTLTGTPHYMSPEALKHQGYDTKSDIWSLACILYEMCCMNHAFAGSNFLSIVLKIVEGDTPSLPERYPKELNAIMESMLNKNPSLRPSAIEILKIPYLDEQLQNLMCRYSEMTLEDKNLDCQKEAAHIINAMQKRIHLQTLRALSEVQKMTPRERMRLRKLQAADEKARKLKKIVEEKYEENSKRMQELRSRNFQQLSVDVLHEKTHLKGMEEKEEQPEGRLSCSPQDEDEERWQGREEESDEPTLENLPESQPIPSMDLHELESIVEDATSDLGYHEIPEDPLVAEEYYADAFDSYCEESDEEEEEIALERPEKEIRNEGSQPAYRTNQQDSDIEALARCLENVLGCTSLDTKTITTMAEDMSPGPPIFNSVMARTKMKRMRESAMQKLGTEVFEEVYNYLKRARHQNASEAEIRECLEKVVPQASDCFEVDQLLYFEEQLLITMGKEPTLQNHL

[29] = molecular target: Proto-oncogene tyrosine-protein kinase ROS (Homo sapiens) (UniProt P08922); conditions: Compound concentration 100.0 nM
[30] = molecular target: Mitogen-activated protein kinase kinase kinase 20 (Homo sapiens) (UniProt Q9NYL2); conditions: Compound concentration 100.0 nM
[31] = molecular target: Ribosomal protein S6 kinase alpha-2 (Homo sapiens) (UniProt Q15349); conditions: Compound concentration 100.0 nM
[32] = molecular target: Cyclin-dependent kinase-like 5 (Homo sapiens) (UniProt O76039); conditions: Compound concentration 100.0 nM
[33] = molecular target: Tyrosine-protein kinase SYK (Homo sapiens) (UniProt P43405); conditions: Compound concentration 100.0 nM
[34] = molecular target: Tyrosine-protein kinase Fyn (Homo sapiens) (UniProt P06241); conditions: Compound concentration 100.0 nM
[35] = molecular target: Ribosomal protein S6 kinase alpha-4 (Homo sapiens) (UniProt O75676); conditions: Compound concentration 100.0 nM
[36] = molecular target: 5'-AMP-activated protein kinase catalytic subunit alpha-2 (Homo sapiens) (UniProt P54646); conditions: Compound concentration 100.0 nM
[37] = molecular target: Dual specificity mitogen-activated protein kinase kinase 1 (Homo sapiens) (UniProt Q02750); conditions: Compound concentration 100.0 nM
[38] = molecular target: Serine/threonine-protein kinase PAK 6 (Homo sapiens) (UniProt Q9NQU5); conditions: Compound concentration 100.0 nM
Serine/threonine-protein kinase PAK 6 (Homo sapiens), sequence (Q9NQU5 whole entry, looked up): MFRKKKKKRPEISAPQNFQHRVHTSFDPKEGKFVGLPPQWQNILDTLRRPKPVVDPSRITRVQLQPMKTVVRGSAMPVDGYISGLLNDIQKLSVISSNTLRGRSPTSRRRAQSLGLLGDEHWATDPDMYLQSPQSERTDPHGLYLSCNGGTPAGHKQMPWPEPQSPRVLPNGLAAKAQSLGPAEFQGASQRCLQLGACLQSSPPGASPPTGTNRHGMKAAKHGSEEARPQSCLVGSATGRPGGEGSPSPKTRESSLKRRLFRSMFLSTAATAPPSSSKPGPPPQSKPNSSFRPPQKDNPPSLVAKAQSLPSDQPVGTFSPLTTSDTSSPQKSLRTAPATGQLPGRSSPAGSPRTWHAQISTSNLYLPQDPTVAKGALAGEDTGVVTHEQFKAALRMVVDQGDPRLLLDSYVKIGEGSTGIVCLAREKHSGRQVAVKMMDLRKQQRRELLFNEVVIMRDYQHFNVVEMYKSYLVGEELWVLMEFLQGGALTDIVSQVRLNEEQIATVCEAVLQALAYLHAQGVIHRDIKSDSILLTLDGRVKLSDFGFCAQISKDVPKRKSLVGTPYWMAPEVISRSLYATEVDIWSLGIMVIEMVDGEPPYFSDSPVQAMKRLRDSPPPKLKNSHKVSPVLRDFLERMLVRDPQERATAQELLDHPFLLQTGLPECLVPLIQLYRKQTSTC

[39] = molecular target: Mitogen-activated protein kinase kinase kinase 3 (Homo sapiens) (UniProt Q99759); conditions: Compound concentration 100.0 nM
Mitogen-activated protein kinase kinase kinase 3 (Homo sapiens), sequence (Q99759 whole entry): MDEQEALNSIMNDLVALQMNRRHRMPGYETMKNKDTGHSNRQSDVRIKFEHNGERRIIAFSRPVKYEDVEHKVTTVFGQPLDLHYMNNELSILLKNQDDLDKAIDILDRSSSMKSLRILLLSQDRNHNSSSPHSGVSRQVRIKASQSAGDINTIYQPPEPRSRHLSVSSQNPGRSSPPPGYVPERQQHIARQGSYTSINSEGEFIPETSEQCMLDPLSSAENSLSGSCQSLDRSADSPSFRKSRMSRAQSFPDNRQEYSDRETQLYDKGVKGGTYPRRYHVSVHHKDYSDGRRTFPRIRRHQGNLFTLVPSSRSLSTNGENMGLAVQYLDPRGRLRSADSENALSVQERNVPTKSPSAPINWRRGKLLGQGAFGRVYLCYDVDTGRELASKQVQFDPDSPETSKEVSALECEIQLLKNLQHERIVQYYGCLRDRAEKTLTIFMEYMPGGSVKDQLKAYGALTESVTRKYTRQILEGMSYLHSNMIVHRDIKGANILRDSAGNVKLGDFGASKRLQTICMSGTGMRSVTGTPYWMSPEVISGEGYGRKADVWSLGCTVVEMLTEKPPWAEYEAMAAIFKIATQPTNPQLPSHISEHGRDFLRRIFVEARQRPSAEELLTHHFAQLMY

[40] = molecular target: cGMP-dependent protein kinase 2 (Homo sapiens) (UniProt Q13237); conditions: Compound concentration 100.0 nM
[41] = molecular target: Serine/threonine-protein kinase tousled-like 1 (Homo sapiens) (UniProt Q9UKI8); conditions: Compound concentration 100.0 nM
[42] = molecular target: Phosphatidylinositol 5-phosphate 4-kinase type-2 beta (Homo sapiens) (UniProt P78356); conditions: Compound concentration 100.0 nM
[43] = molecular target: Inhibitor of nuclear factor kappa-B kinase subunit epsilon (Homo sapiens) (UniProt Q14164); conditions: Compound concentration 100.0 nM
[44] = molecular target: Dual specificity protein kinase CLK3 (Homo sapiens) (UniProt P49761); conditions: Compound concentration 100.0 nM
[45] = molecular target: Cyclin-dependent kinase-like 3 (Homo sapiens) (UniProt Q8IVW4); conditions: Compound concentration 100.0 nM

SMILES: CC(C)CC(=O)N1CCc2nc(-c3ccc(Br)cc3)nc(N(C)Cc3ccccc3)c2C1 [THPP-1-NC]
- residual activity [1]: 100%
- residual activity [2]: 99%
- residual activity [3]: 100%
- residual activity [4]: 80%
- residual activity [5]: 79%
- residual activity [6]: 91%
- residual activity [7]: 68%
- residual activity [8]: 100%
- residual activity [9]: 91%
- Ki [10]: > 25.3 µM (not active)
- residual activity [11]: 100%
- residual activity [12]: 100%
- residual activity [13]: 100%
- residual activity [14]: 96%
- residual activity [15]: 100%
- residual activity [16]: 78%
- residual activity [17]: 100%
- residual activity [18]: 100%
- residual activity [19]: 100%
- inhibition [20]: 38%
- residual activity [21]: 66%
- residual activity [22]: 100%
- residual activity [23]: 100%
- residual activity [24]: 100%
- residual activity [25]: 100%
- residual activity [26]: 100%
- residual activity [27]: 97%
- residual activity [28]: 98%
- residual activity [29]: 100%
- residual activity [30]: 100%
- residual activity [31]: 100%
- residual activity [32]: 100%
- residual activity [33]: 100%
- residual activity [34]: 100%
- residual activity [35]: 100%
- residual activity [36]: 100%
- residual activity [37]: 100%
- residual activity [38]: 100%
- residual activity [39]: 77%
- residual activity [40]: 100%
- residual activity [41]: 100%
- residual activity [42]: 61%
- residual activity [43]: 100%
- residual activity [44]: 100%
- residual activity [45]: 89%

SMILES: COCCOc1nc(-c2ccc(Cl)nc2)nc2c1CN(C(=O)c1ncn3ccccc13)CC2 [THPP-1]
- residual activity [1]: 100%
- residual activity [2]: 100%
- residual activity [3]: 100%
- residual activity [4]: 55%
- residual activity [5]: 95%
- residual activity [6]: 62%
- residual activity [7]: 88%
- residual activity [8]: 100%
- residual activity [9]: 84%
- Ki [10]: 11.2 µM (not active)
- residual activity [11]: 100%
- residual activity [12]: 85%
- residual activity [13]: 100%
- residual activity [14]: 100%
- residual activity [15]: 100%
- residual activity [16]: 67%
- residual activity [17]: 100%
- residual activity [18]: 100%
- residual activity [19]: 100%
- inhibition [20]: -1.56%
- residual activity [21]: 87%
- residual activity [22]: 100%
- residual activity [23]: 100%
- residual activity [24]: 100%
- residual activity [25]: 100%
- residual activity [26]: 100%
- residual activity [27]: 86%
- residual activity [28]: 100%
- residual activity [29]: 100%
- residual activity [30]: 100%
- residual activity [31]: 100%
- residual activity [32]: 100%
- residual activity [33]: 100%
- residual activity [34]: 100%
- residual activity [35]: 100%
- residual activity [36]: 100%
- residual activity [37]: 100%
- residual activity [38]: 100%
- residual activity [39]: 96%
- residual activity [40]: 100%
- residual activity [41]: 100%
- residual activity [42]: 59%
- residual activity [43]: 100%
- residual activity [44]: 100%
- residual activity [45]: 96%

Reference: ChEMBL document CHEMBL4507293 (2021)
